Source: patent US20250009763A1, “METHODS FOR EXTENDING LIFESPAN AND/OR DELAYING AGING” (priority 2023, published 2025)

Tested on: aged C57BL/6J mice
Assay: Rearing behavior
Assay type: in vivo, mouse
Conditions: long-term (111 weeks of age), old-aged mice; FIG. 4D
Procedure: The rearing behavior of the male C57BL/6J mice fed a standard rodent chow with or without 50 mg/kg PN6 for 22 weeks (at 72 weeks of age; mid-term) or for 61 weeks (at 111 weeks of age; long-term) was analyzed using the OxyletPro System, in which the mice were housed individually in metabolic cages that were equipped with infrared light beam frames surrounding them. Mid-term: SD, n=16; PN6, n=8; long-term: SD, n=12; PN6, n=8.

## CCC(CC[C@@H](C)C1CCC2C3CC(=O)[C@H]4C[C@@H](O)CC[C@]4(C)C3CC[C@@]21C)C(C)C (stereo in doubt) [PN6, (24S)-3β-hydroxy-5α-stigmastan-6-one]
  rearing behavior (exploratory activity): increase the exploratory activity
